Experimental data: patent US20240270751A1, “Pyrazolopyridinone Compounds” (BeiGene Ltd., priority 2021, published 2024)

Legend:
DGKζ = DGKζ (Homo sapiens (Human), UniProt Q13574); test: Biochemical DGK IC50 assay, DGKζ ADP-Glo assay; conditions: 0.5 nM enzyme, 140 μM ATP, 80 μM DAG; read-out: DGKζ ADP-Glo assay IC50
How it was run: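 Full-length human DGKζ, His-TEV tagged and purified from baculovirus-infected Sf9 cells, assayed by ADP-Glo with DAG/PS lipid micelle substrate prepared in 25 mM HEPES pH 7.0 with octyl glucoside. Final compound concentrations spanned 1.55–10000 nM or 23.3–150000 nM.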

DGKα = DGKα (Homo sapiens (Human), UniProt P23743); test: Biochemical DGK IC50 assay, DGKα ADP-Glo assay; conditions: 7.5 nM enzyme, 140 μM ATP, 80 μM DAG
How it was run: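 ADP-Glo read-out with full-length DGKα on DAG/PS lipid micelle substrate in 25 mM HEPES pH 7.0, 0.5 mM EDTA, 160 mM octyl β-D-glucopyranoside. Compound final concentrations spanned 1.55˜10000 nM or 23.3˜150000 nM.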

Sequence of DGKα (P23743 whole entry): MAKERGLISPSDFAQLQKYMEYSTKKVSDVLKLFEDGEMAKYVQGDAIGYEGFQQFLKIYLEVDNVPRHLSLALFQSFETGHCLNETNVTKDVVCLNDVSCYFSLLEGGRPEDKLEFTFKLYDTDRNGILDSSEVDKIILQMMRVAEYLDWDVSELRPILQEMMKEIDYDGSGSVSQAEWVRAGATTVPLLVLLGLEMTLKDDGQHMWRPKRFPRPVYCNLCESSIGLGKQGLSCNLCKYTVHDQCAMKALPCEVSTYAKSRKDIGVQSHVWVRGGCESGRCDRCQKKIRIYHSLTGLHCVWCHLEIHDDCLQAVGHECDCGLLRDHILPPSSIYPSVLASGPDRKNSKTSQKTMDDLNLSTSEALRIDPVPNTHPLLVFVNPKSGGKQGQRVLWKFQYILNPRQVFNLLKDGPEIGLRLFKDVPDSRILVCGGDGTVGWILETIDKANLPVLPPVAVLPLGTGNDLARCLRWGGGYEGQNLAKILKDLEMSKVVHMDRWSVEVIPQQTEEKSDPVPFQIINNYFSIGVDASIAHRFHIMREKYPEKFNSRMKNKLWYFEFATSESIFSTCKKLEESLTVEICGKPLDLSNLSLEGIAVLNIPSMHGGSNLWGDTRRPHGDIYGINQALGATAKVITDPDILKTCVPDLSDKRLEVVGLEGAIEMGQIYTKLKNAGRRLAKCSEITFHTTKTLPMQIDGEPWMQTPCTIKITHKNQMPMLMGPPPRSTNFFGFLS
Sequence of DGKζ (Q13574 other isoform, or with tags, fused parts or gaps): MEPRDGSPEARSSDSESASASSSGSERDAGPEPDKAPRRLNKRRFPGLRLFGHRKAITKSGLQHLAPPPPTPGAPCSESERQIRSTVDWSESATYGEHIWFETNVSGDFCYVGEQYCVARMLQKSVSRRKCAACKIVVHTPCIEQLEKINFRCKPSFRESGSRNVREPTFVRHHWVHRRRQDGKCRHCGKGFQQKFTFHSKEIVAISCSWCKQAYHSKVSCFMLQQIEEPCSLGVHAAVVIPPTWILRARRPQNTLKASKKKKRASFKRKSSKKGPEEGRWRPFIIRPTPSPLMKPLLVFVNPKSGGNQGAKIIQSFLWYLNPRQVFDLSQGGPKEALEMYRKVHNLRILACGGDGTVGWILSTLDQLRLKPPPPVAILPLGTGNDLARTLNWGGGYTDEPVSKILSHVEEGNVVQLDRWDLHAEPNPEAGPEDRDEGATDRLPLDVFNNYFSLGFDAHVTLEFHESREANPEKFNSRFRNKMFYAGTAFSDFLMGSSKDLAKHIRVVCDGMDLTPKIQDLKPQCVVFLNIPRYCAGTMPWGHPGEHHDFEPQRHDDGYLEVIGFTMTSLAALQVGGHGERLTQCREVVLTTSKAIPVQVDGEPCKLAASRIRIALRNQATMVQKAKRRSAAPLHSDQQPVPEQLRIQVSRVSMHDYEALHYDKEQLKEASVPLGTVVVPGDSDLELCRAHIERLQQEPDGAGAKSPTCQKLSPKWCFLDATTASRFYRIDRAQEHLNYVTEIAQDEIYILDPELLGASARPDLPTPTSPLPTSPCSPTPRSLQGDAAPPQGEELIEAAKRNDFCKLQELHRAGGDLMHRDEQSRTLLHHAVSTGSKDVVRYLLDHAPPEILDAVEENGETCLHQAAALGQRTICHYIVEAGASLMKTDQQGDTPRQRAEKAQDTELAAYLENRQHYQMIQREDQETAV

Compound | IC50 (DGKζ) [nM] | IC50 (DGKα) [nM]
C[C@@H]1CN(c2nc(=O)n(C)c3c(Cl)n(CC#N)nc23)[C@@H](C)CN1[C@H](C)c1ccc2nccnc2c1 [Compound A245, 2-(3-chloro-7-((2S,5R)-2,5-dimethyl-4-((R)-1-(quinoxalin-6-yl)ethyl)piperazin-1-yl)-4-methyl-5-oxo-4,5-dihydro-2H-pyrazolo[4,3-d]pyrimidin-2-yl)acetonitrile, or 2-(3-chloro-7-((2S,5R)-2,5-dimethyl-4-((S)-1-(quinoxalin-6-yl)ethyl)piperazin-1-yl)-4-methyl-5-oxo-4,5-dihydro-2H-pyrazolo[4,3-d]pyrimidin-2-yl)acetonitrile] | 87 | > 10000
CC(c1ccc2nccnc2c1)N1C[C@H](C)N(c2cc(=O)n(C)c3cn(CC4CO4)nc23)C[C@H]1C (stereo partly shown) [Compound A12] | 2200 | > 150000
Cc1nc2cccc(C(C)N3C[C@H](C)N(c4cc(=O)n(C)c5cn(CC#N)nc45)C[C@H]3C)c2o1 (stereo partly shown) [Compound A42] | 3390 | > 10000
CC[C@H]1CN(C(C)c2nc3cccnc3n2CC)[C@H](CC)CN1c1cc(=O)n(C)c2cn(CC#N)nc12 (single isomer, unassigned) [Compound A185b] | 34 | 3990
COC(=O)C1CN(c2cc(=O)n(C)c3cn(CC#N)nc23)CCN1[C@@H](C)c1ccc2nccnc2c1 (single isomer, unassigned) [Compound A173a] | 502 | > 10000
CC[C@H]1CN([C@@H](C)c2nc3ncccc3n2CC)[C@H](CC)CN1c1cc(=O)n(C)c2cn(CC#N)nc12 (single isomer, unassigned) [Compound A215b] | 1140 | > 10000
CC[C@H]1CN(C(C)c2cnc3ccccc3c2)[C@H](CC)CN1c1cc(=O)n(C)c2cn(CC#N)nc12 (stereo partly shown) [Compound A56] | 27 | 560
CC(c1ccc2ncc(C(F)F)nc2c1)N1C[C@H](C)N(c2cc(=O)n(C)c3cn(CC#N)nc23)C[C@H]1C (stereo partly drawn) [Compound A311, 2-(7-((2S,5R)-4-(1-(3-(difluoromethyl)quinoxalin-6-yl)ethyl)-2,5-dimethylpiperazin-1-yl)-4-methyl-5-oxo-4,5-dihydro-2H-pyrazolo[4,3-b]pyridin-2-yl)acetonitrile] | 41 | 6630
CC[C@H]1CN(C(C)c2cnc(C)n2CC)[C@H](CC)CN1c1cc(=O)n(C)c2cn(CC#N)nc12 (stereo partly shown) [Compound A219] | > 10000 | > 10000
CC[C@H]1CN([C@@H](C)c2ccc3nccnc3c2)[C@H](CC)CN1c1cc(=O)[nH]c2cn(CC#N)nc12 [Compound A129, 2-(7-((2S,5R)-2,5-diethyl-4-((S)-1-(quinoxalin-6-yl)ethyl)piperazin-1-yl)-5-oxo-4,5-dihydro-2H-pyrazolo[4,3-b]pyridin-2-yl)acetonitrile] | 33 | 2350
CC[C@H]1CN(C(C)c2ccc(C(F)F)cn2)[C@H](CC)CN1c1cc(=O)n(C)c2cn(CC#N)nc12 (single isomer, unassigned) [Compound A347b] | 223 | 8
CC(c1ccc2c(c1)OCCO2)N1C[C@H](C)N(c2cc(=O)n(C)c3cn(CC#N)nc23)C[C@H]1C (single isomer, unassigned) [Compound A43a] | 5080 | 37700
CC[C@@H]1CN(c2cc(=O)n(C)c3cn(CC#N)nc23)[C@@H](CC)CN1Cc1ccc(OC(F)(F)F)cc1 [Compound A77] | 600 | 9.2
CC[C@H]1CN(C(C)c2ccc(F)cc2OC)[C@H](CC)CN1c1cc(=O)n(CCO)c2cn(CC#N)nc12 (single isomer, unassigned) [Compound A153a] | 9340 | > 10000
CC[C@H]1CN(C(C)c2cc3ccccc3cn2)[C@H](CC)CN1c1cc(=O)n(C)c2cn(CC#N)nc12 (stereo partly shown) [Compound A58] | 2.8 | 7.3
CC[C@H]1CN(C(C)c2ccc(F)cc2F)[C@H](CC)CN1c1cc(=O)n(C)c2cn(CC#N)nc12 (single isomer, unassigned) [Compound A132a] | 5.9 | 8.9
Cc1cnc2ccc([C@H](C)N3C[C@H](C)N(c4c(C#N)c(=O)n(C)c5cn(CC#N)nc45)C[C@H]3C)cc2n1 [Compound A318, 2-(cyanomethyl)-7-((2S,5R)-2,5-dimethyl-4-((S)-1-(3-methylquinoxalin-6-yl)ethyl)piperazin-1-yl)-4-methyl-5-oxo-4,5-dihydro-2H-pyrazolo[4,3-b]pyridine-6-carbonitrile] | 15 | 6490
CC[C@@H]1CN(c2c(Br)c(=O)n(C)c3cn(CC#N)nc23)CCN1C(C)c1ccc2nccnc2c1 (single isomer, unassigned) [Compound A179b] | > 10000 | > 10000
CC[C@H]1CN(C(C)c2ccc(OC(C)C)cc2)[C@H](CC)CN1c1cc(=O)n(C)c2cn(CC#N)nc12 (stereo partly shown) [Compound A160] | 247 | 52

Compound | IC50 (DGKζ) [nM] | IC50 (DGKα) [nM]
CC[C@H]1CN(C(C)c2ccncn2)[C@H](CC)CN1c1cc(=O)n(C)c2cn(CC#N)nc12 (stereo partly shown) [Compound A131] | 8990 | 287
COCCn1cc2c(n1)c(N1C[C@@H](C)N(C(C)c3ccc4nccnc4c3)C[C@@H]1C)cc(=O)n2C (stereo partly shown) [Compound A5] | 3500 | 21000
CC[C@H]1CN(C(C)c2ccc(C)nc2)[C@H](CC)CN1c1cc(=O)n(C)c2cn(CC#N)nc12 (single isomer, unassigned) [Compound A349b] | 4240 | 1580
C[C@@H](c1ccc2nccnc2c1)N1CCN(c2cc(=O)n(C)c3cn(CC#N)nc23)CC1C(N)=O (single isomer, unassigned) [Compound A198a] | > 10000 | > 10000
CC[C@H]1CN(C(C)c2ccc(C(C)(C)C#N)cc2)[C@H](CC)CN1c1cc(=O)n(C)c2cn(CC#N)nc12 (stereo partly shown) [Compound A338] | 160 | 527
C=C(C)n1cc2c(n1)c(N1C[C@@H](C)N(C(C)c3ccc4nccnc4c3)C[C@@H]1C)cc(=O)n2C (stereo partly drawn) [Compound A24, 7-((2S,5R)-2,5-dimethyl-4-(1-(quinoxalin-6-yl)ethyl)piperazin-1-yl)-4-methyl-2-(prop-1-en-2-yl)-2,4-dihydro-5H-pyrazolo[4,3-b]pyridin-5-one] | 4300 | 150
CC[C@H]1CN(C(C)c2nc3cccc(C(F)(F)F)c3n2CC)[C@H](CC)CN1c1cc(=O)n(C)c2cn(CC#N)nc12 (single isomer, unassigned) [Compound A230a] | 1440 | > 10000
CC#CCn1cc2c(n1)c(N1C[C@@H](C)N(C(C)c3ccc4c(c3)OC(F)(F)O4)C[C@@H]1C)cc(=O)n2C (stereo partly shown) [Compound A391] | 1650 | 1180
CC[C@H]1CN(C(C)c2ccc(F)cc2OC(F)(F)F)[C@H](CC)CN1c1cc(=O)n(C)c2cn(CC#N)nc12 (stereo partly drawn) [Compound A170, 2-(7-((2S,5R)-2,5-diethyl-4-(1-(4-fluoro-2-(trifluoromethoxy)phenyl)ethyl)piperazin-1-yl)-4-methyl-5-oxo-4,5-dihydro-2H-pyrazolo[4,3-b]pyridin-2-yl)acetonitrile] | 887 | > 10000
COC(C)c1cc(F)ccc1C(C)N1C[C@H](C)N(c2cc(=O)n(C)c3cn(CC#N)nc23)C[C@H]1C (single isomer, unassigned) [Compound A286b] | 17 | 51500
CC[C@H]1CN(C(C)c2cnc(C(F)(F)F)n2CC)[C@H](CC)CN1c1cc(=O)n(C)c2cn(CC#N)nc12 (stereo partly shown) [Compound A239] | 391 | > 10000
CC[C@H]1CN(C(C)c2ccc(OC(C)C)cn2)[C@H](CC)CN1c1cc(=O)n(C)c2cn(CC#N)nc12 (stereo partly shown) [Compound A140] | 189 | 82
CC[C@H]1CN(C(C)c2ccc(C(F)(F)F)cn2)[C@H](CC)CN1c1cc(=O)n(C)c2cn(CC#N)nc12 (single isomer, unassigned) [Compound A348b] | 138 | 9
CC[C@H]1CN(C(C)c2ccc(F)cc2OC(F)F)[C@H](CC)CN1c1cc(=O)n(C)c2cn(CC#N)nc12 (single isomer, unassigned) [Compound A171b] | 1360 | > 10000
CC[C@H]1CN(C(C)c2ccc(C)cc2)[C@H](CC)CN1c1cc(=O)n(C)c2cn(CC#N)nc12 (single isomer, unassigned) [Compound A127b] | 3710 | 177
CC[C@@H]1CN(c2cc(=O)n(C)c3cn(CC#N)nc23)[C@@H](C)CN1C(C)c1ccc(C(F)(F)F)cc1F (single isomer, unassigned) [Compound A202b] | 3030 | 1280
CC[C@H]1CN(C(C)c2cn(C)nc2C(F)(F)F)[C@H](CC)CN1c1cc(=O)n(C)c2cn(CC#N)nc12 (stereo partly drawn) [Compound A232, 2-(7-((2S,5R)-2,5-diethyl-4-(1-(1-methyl-3-(trifluoromethyl)-1H-pyrazol-4-yl)ethyl)piperazin-1-yl)-4-methyl-5-oxo-4,5-dihydro-2H-pyrazolo[4,3-b]pyridin-2-yl)acetonitrile] | 3110 | 8490
CC[C@H]1CN(C(C)c2ccc3c(n2)C(C)(C)CO3)[C@H](CC)CN1c1cc(=O)n(C)c2cn(CC#N)nc12 (stereo partly drawn) [Compound A352, 2-(7-((2S,5R)-4-(1-(3,3-dimethyl-2,3-dihydrofuro[3,2-b]pyridin-5-yl)ethyl)-2,5-diethylpiperazin-1-yl)-4-methyl-5-oxo-4,5-dihydro-2H-pyrazolo[4,3-b]pyridin-2-yl)acetonitrile] | 6 | 5400
CC[C@H]1CN(C(C)c2ccc(C(F)(F)F)c(OC)c2)[C@H](CC)CN1c1cc(=O)n(C)c2cn(CC#N)nc12 (stereo partly shown) [Compound A78] | 640 | 2410
